# Measurements: ChEMBL document CHEMBL2040766, “Hemisynthesis and antiproliferative properties of mono-[O-(14-benzoylaconine-8-yl)]esters and bis-[O-(14-benzoylaconine-8-yl)]esters” (Eur J Med Chem, 2012)
# Tests used:
# A549 = test: Cytotoxicity against human A549 cells incubated for 24 hrs measured 48 hrs post cell re-growth post compound dose by MTT assay; format: functional, cell-based
# MCF7 [1] = test: Cytotoxicity against human MCF7 cells incubated for 24 hrs measured 48 hrs post cell re-growth post compound dose by MTT assay; format: functional, cell-based
# HCT-15 [2] = test: Cytotoxicity against human HCT15 cells incubated for 24 hrs measured 48 hrs post cell re-growth post compound dose by MTT assay; format: functional, cell-based
# Mus musculus [3] = test: Toxicity in NOD.Cg-Prkdcscid Il2rgtmw/SzJ jax 005557 mouse xenografted with human HCT15 cells assessed as weight loss at 10 mg/kg, iv administered as 5 doses every 3 days starting at day 7 post-tumor grafting relative to vehicle treated control; format: organism-based, HCT-15; set-up: dose 10 mg/kg, route intravenous; conditions: in vivo, 72 h
# HCT-15 [4] = test: Antitumor activity against human HCT15 cells xenografted in NOD.Cg-Prkdcscid Il2rgtmw/SzJ jax 005557 mouse assessed as tumor weight at 10 mg/kg, iv administered as 5 doses every 3 days starting at day 7 post-tumor grafting measured on day 25 relative to vehicle treated control; format: functional
# MCF7 [5] = test: Antitumor activity against human MCF7 cells xenografted in NOD.Cg-Prkdcscid Il2rgtmw/SzJ jax 005557 mouse assessed as tumor weight at 10 mg/kg, iv administered as weekly four doses starting at day 13 post-tumor grafting measured on day 45 relative to vehicle treated control; format: functional
# MCF7 [6] = test: Antitumor activity against human MCF7 cells xenografted in NOD.Cg-Prkdcscid Il2rgtmw/SzJ jax 005557 mouse assessed as tumor weight at 10 mg/kg, iv administered as 5 doses every 4 days starting at day 9 post-tumor grafting measured on day 45 relative to vehicle treated control; format: functional
# Mus musculus [7] = test: Toxicity in NOD.Cg-Prkdcscid Il2rgtmw/SzJ jax 005557 mouse xenografted with human MCF7 cells assessed as weight loss at 10 mg/kg, iv administered as weekly four doses starting at day 13 post-tumor grafting relative to vehicle treated control; format: organism-based; set-up: dose 10 mg/kg, route intravenous; conditions: in vivo
# Mus musculus [8] = test: Toxicity in NOD.Cg-Prkdcscid Il2rgtmw/SzJ jax 005557 mouse xenografted with human MCF7 cells assessed as weight loss at 10 mg/kg, iv administered as 5 doses every 4 days starting at day 9 post-tumor grafting relative to vehicle treated control; format: organism-based; set-up: dose 10 mg/kg, route intravenous; conditions: in vivo, 96 h
# [9] = Toxicity in iv dosed NOD.Cg-Prkdcscid Il2rgtmw/SzJ jax 005557 mouse assessed as maximum tolerated dose at 10 mg/kg, iv administered as 5 doses every 3 days starting at day 7 post-tumor grafting; format: organism-based; set-up: dose 10 mg/kg, route intravenous; conditions: in vivo
# [10] = Toxicity in iv dosed NOD.Cg-Prkdcscid Il2rgtmw/SzJ jax 005557 mouse assessed as maximum tolerated dose at 10 mg/kg, iv administered as weekly four doses starting at day 13 post-tumor grafting; format: organism-based; set-up: dose 10 mg/kg, route intravenous; conditions: in vivo
# [11] = Toxicity in iv dosed NOD.Cg-Prkdcscid Il2rgtmw/SzJ jax 005557 mouse assessed as maximum tolerated dose at 10 mg/kg, iv administered as 5 doses every 4 days starting at day 9 post-tumor grafting; format: organism-based; set-up: dose 10 mg/kg, route intravenous; conditions: in vivo
# Mus musculus [12] = test: Toxicity in NOD.Cg-Prkdcscid Il2rgtmw/SzJ jax 005557 mouse xenografted with human HCT15 cells assessed as mortality incidence at 10 mg/kg, iv administered as 5 doses every 3 days starting at day 7 post-tumor grafting relative to vehicle treated control; format: organism-based, HCT-15; set-up: dose 10 mg/kg, route intravenous; conditions: in vivo, 72 h
# Mus musculus [13] = test: Toxicity in NOD.Cg-Prkdcscid Il2rgtmw/SzJ jax 005557 mouse xenografted with human MCF7 cells assessed as mortality incidence at 10 mg/kg, iv administered as weekly four doses starting at day 13 post-tumor grafting relative to vehicle treated control; format: organism-based; set-up: dose 10 mg/kg, route intravenous; conditions: in vivo
# Mus musculus [14] = test: Toxicity in NOD.Cg-Prkdcscid Il2rgtmw/SzJ jax 005557 mouse xenografted with human MCF7 cells assessed as mortality incidence at 10 mg/kg, iv administered as 5 doses every 4 days starting at day 9 post-tumor grafting relative to vehicle treated control; format: organism-based; set-up: dose 10 mg/kg, route intravenous; conditions: in vivo, 96 h
# Mus musculus [15] = test: Toxicity in NOD.Cg-Prkdcscid Il2rgtmw/SzJ jax 005557 mouse xenografted with human HCT15 cells assessed as induction of toxic effect at 10 mg/kg, iv administered as 5 doses every 3 days starting at day 7 post-tumor grafting relative to vehicle treated control; format: organism-based, HCT-15; set-up: dose 10 mg/kg, route intravenous; conditions: in vivo, 72 h
# Mus musculus [16] = test: Toxicity in NOD.Cg-Prkdcscid Il2rgtmw/SzJ jax 005557 mouse xenografted with human MCF7 cells assessed as induction of toxic effect at 10 mg/kg, iv administered as weekly four doses starting at day 13 post-tumor grafting relative to vehicle treated control; format: organism-based; set-up: dose 10 mg/kg, route intravenous; conditions: in vivo
# Mus musculus [17] = test: Toxicity in NOD.Cg-Prkdcscid Il2rgtmw/SzJ jax 005557 mouse xenografted with human MCF7 cells assessed as induction of toxic effect at 10 mg/kg, iv administered as 5 doses every 4 days starting at day 9 post-tumor grafting relative to vehicle treated control; format: organism-based; set-up: dose 10 mg/kg, route intravenous; conditions: in vivo, 96 h
SMILES,IC50 (A549) [µM],IC50 (MCF7 [1]) [µM],IC50 (HCT-15 [2]) [µM],other results
CCN1C[C@]2(COC)[C@H](O)C[C@H](OC)[C@]34C1[C@H]([C@H](OC)[C@H]23)[C@]1(OC(=O)CCCCC(=O)O)[C@H]2[C@@H](OC(=O)c3ccccc3)[C@](O)(C[C@H]24)[C@@H](OC)[C@@H]1O,> 60,> 60,> 60,–
CCN1C[C@]2(COC)[C@H](O)C[C@H](OC)[C@]34C1[C@H]([C@H](OC)[C@H]23)[C@]1(OC(=O)CCCCC(=O)O[C@]23[C@H]5[C@@H](OC(=O)c6ccccc6)[C@](O)(C[C@H]5[C@@]56C7[C@@H]2[C@H](OC)[C@@H]5[C@](COC)(CN7CC)[C@H](O)C[C@@H]6OC)[C@@H](OC)[C@@H]3O)[C@H]2[C@@H](OC(=O)c3ccccc3)[C@](O)(C[C@H]24)[C@@H](OC)[C@@H]1O,> 60,> 60,> 60,–
CCN1C[C@]2(COC)[C@H](O)C[C@H](OC)[C@]34C1[C@H]([C@H](OC)[C@H]23)[C@]1(OC(=O)CCC(=O)O)[C@H]2[C@@H](OC(=O)c3ccccc3)[C@](O)(C[C@H]24)[C@@H](OC)[C@@H]1O,> 60,> 60,> 60,–
CCN1C[C@]2(COC)[C@H](O)C[C@H](OC)[C@]34C1[C@H]([C@H](OC)[C@H]23)[C@]1(OC(=O)CCCC(=O)O)[C@H]2[C@@H](OC(=O)c3ccccc3)[C@](O)(C[C@H]24)[C@@H](OC)[C@@H]1O,> 60,> 60,> 60,–
CCN1C[C@]2(COC)[C@H](O)C[C@H](OC)[C@]34C1[C@H]([C@H](OC)[C@H]23)[C@]1(OC(=O)CCCCCCC(=O)O)[C@H]2[C@@H](OC(=O)c3ccccc3)[C@](O)(C[C@H]24)[C@@H](OC)[C@@H]1O,> 60,> 60,> 60,–
CCN1C[C@]2(COC)[C@H](O)C[C@H](OC)[C@]34C1[C@H]([C@H](OC)[C@H]23)[C@]1(OC(=O)CCCCCCCC(=O)O)[C@H]2[C@@H](OC(=O)c3ccccc3)[C@](O)(C[C@H]24)[C@@H](OC)[C@@H]1O,> 60,> 60,> 60,–
CCN1C[C@]2(COC)[C@H](O)C[C@H](OC)[C@]34C1[C@H]([C@H](OC)[C@H]23)[C@]1(OC(=O)CCCCCC(=O)O)[C@H]2[C@@H](OC(=O)c3ccccc3)[C@](O)(C[C@H]24)[C@@H](OC)[C@@H]1O,> 60,> 60,> 60,–
CCN1C[C@]2(COC)[C@H](O)C[C@H](OC)[C@]34C1[C@H]([C@H](OC)[C@H]23)[C@]1(OC(=O)CCCC(=O)O[C@]23[C@H]5[C@@H](OC(=O)c6ccccc6)[C@](O)(C[C@H]5[C@@]56C7[C@@H]2[C@H](OC)[C@@H]5[C@](COC)(CN7CC)[C@H](O)C[C@@H]6OC)[C@@H](OC)[C@@H]3O)[C@H]2[C@@H](OC(=O)c3ccccc3)[C@](O)(C[C@H]24)[C@@H](OC)[C@@H]1O,> 60,> 60,> 60,–
CCN1C[C@]2(COC)[C@H](O)C[C@H](OC)[C@]34C1[C@H]([C@H](OC)[C@H]23)[C@]1(OC(=O)CCCCCCC(=O)O[C@]23[C@H]5[C@@H](OC(=O)c6ccccc6)[C@](O)(C[C@H]5[C@@]56C7[C@@H]2[C@H](OC)[C@@H]5[C@](COC)(CN7CC)[C@H](O)C[C@@H]6OC)[C@@H](OC)[C@@H]3O)[C@H]2[C@@H](OC(=O)c3ccccc3)[C@](O)(C[C@H]24)[C@@H](OC)[C@@H]1O,7.53,6.9,4.01,T/C (Mus musculus [3]): 9.34%; T/C (HCT-15 [4]): 49%; T/C (MCF7 [5]): 56%; T/C (MCF7 [6]): 36%; T/C (Mus musculus [7]): 0%; T/C (Mus musculus [8]): 0%; MTD at 72 h [9]: 15 mg/kg; MTD [10]: 15 mg/kg; MTD at 96 h [11]: 15 mg/kg; Activity (Mus musculus [12]): Non-toxic; Activity (Mus musculus [13]): Non-toxic; Activity (Mus musculus [14]): Non-toxic; Activity (Mus musculus [15]): Non-toxic; Activity (Mus musculus [16]): Non-toxic; Activity (Mus musculus [17]): Non-toxic
CCN1C[C@]2(COC)[C@H](O)C[C@H](OC)[C@]34C1[C@H]([C@H](OC)[C@H]23)[C@]1(OC(=O)CCC(=O)O[C@]23[C@H]5[C@@H](OC(=O)c6ccccc6)[C@](O)(C[C@H]5[C@@]56C7[C@@H]2[C@H](OC)[C@@H]5[C@](COC)(CN7CC)[C@H](O)C[C@@H]6OC)[C@@H](OC)[C@@H]3O)[C@H]2[C@@H](OC(=O)c3ccccc3)[C@](O)(C[C@H]24)[C@@H](OC)[C@@H]1O,> 60,> 60,> 60,–
CCN1C[C@]2(COC)[C@H](O)C[C@H](OC)[C@]34C1[C@H]([C@H](OC)[C@H]23)[C@]1(OC(=O)CCCCCCCCCC(=O)O)[C@H]2[C@@H](OC(=O)c3ccccc3)[C@](O)(C[C@H]24)[C@@H](OC)[C@@H]1O,> 60,> 60,> 60,–
CCN1C[C@]2(COC)[C@H](O)C[C@H](OC)[C@]34C1[C@H]([C@H](OC)[C@H]23)[C@]1(OC(=O)CCCCCCCCC(=O)O)[C@H]2[C@@H](OC(=O)c3ccccc3)[C@](O)(C[C@H]24)[C@@H](OC)[C@@H]1O,> 60,> 60,> 60,–
CCN1C[C@]2(COC)[C@H](O)C[C@H](OC)[C@]34C1[C@H]([C@H](OC)[C@H]23)[C@]1(OC(=O)CCCCCC(=O)O[C@]23[C@H]5[C@@H](OC(=O)c6ccccc6)[C@](O)(C[C@H]5[C@@]56C7[C@@H]2[C@H](OC)[C@@H]5[C@](COC)(CN7CC)[C@H](O)C[C@@H]6OC)[C@@H](OC)[C@@H]3O)[C@H]2[C@@H](OC(=O)c3ccccc3)[C@](O)(C[C@H]24)[C@@H](OC)[C@@H]1O,9.5,7.56,4.64,–
CCN1C[C@]2(COC)[C@H](O)C[C@H](OC)[C@]34C1[C@H]([C@H](OC)[C@H]23)[C@]1(OC(=O)CCCCCCCC(=O)O[C@]23[C@H]5[C@@H](OC(=O)c6ccccc6)[C@](O)(C[C@H]5[C@@]56C7[C@@H]2[C@H](OC)[C@@H]5[C@](COC)(CN7CC)[C@H](O)C[C@@H]6OC)[C@@H](OC)[C@@H]3O)[C@H]2[C@@H](OC(=O)c3ccccc3)[C@](O)(C[C@H]24)[C@@H](OC)[C@@H]1O,19.5,16.9,28,–
